Source: patent US9969698B2, “Quinoxalinyl-piperazinamide methods of use” (REXAHN PHARMACEUTICALS, INC., priority 2015, dated 2018)
Marks after values point to notes of the source that are not given here.

Columns and labels:
[1] = target: T1, phospho-p68 (Homo sapiens, UniProt P17844); assay: β-catenin dependent ATPase assay; assay type: biochemical
T1 construct: made in house
Description: ATPase activity was determined by measuring the released inorganic phosphate during ATP hydrolysis using a direct colorimetric assay (Shin et al., Cancer Res., 67:7572-7578 (2007); Yang et. al., Cell, 127:139-155 (2006)). A typical ATPase assay was carried out in 50 μl reaction volumes, containing 20 mM Tris-HCl pH 7.5, 200 mM NaCl, 1 mM MgCl2, 5 mM DTT, ˜1-2 of appropriate substrate, 4 mM ATP, and 10 μl of helicase. The ATPase reactions were incubated at 37° C. for 30 minutes. After incubation, 1 ml of malachitegreen-molybdenum reagent was added to the reaction mixture, and reactions were further incubated at room temperature for exactly 5 minutes. The absorption (A) at 630 nm was then measured. The concentrations of inorganic phosphate were determined by matching the A630nm in a standard curve of A630nm vs. known phosphate concentrations. The proteins, p68 or phospho-p68, used for this assay were prepared in-house similar to the procedure reported previously (Yang et al., Protein Expr. Purif., 35:327-333 (2004)). The percentage of inhibition by defining the ATPase activity of phospho-p68 without RX-5902 as zero percent inhibition was calculated and IC50 of RX-5902 was calculated by non-linear regression analysis using Kaledia Graph software program (Synergy Software, Reading, Pa.).
The experiment was repeated at lower concentrations of RX-5902 to calculate IC50.

[2] = test system: human non-small cell lung tumor xenografts (A549); assay: Non-small cell lung cancer xenograft model; assay type: in vivo, mice; conditions: oral
Source text: The efficacy of RX-5902 in human cancer xenograft mouse models is examined. Female nude mice (nu/nu, Harlan or CRL: NU(NCr)-Foxn1^nu, Charles River), 9-10 weeks old, with a body weight (BW) range of 15-30 g on day 1 of the study, are fed ad libitum water (reverse osmosis, 1 ppm C1), and NIH 31 Modified and Irradiated Lab Diet® consisting of 18.0% crude protein, 5.0% crude fat, and 5.0% crude fiber. The mice are housed on irradiated Enrich-o'Cobs™ Laboratory Animal Bedding in static microisolators on a 12-hour light cycle at 20-22° C. (68-72° F.) and 40-60% humidity. The study complies with the recommendations of the Guide for, Care and Use of Laboratory Animals with respect to restraint, husbandry, surgical procedures, feed and fluid regulation, and veterinary care.
Various human tumor cell lines (e.g., HCT116, HT29, H460, H69, Caki-1, CaSki, MiaPaca2, BxPC3 and Colo 205 cells [ATCC, Manassas, Va., USA]) are cultured according to ATCC's instruction. […]
The cells are harvested during exponential growth and re-suspended with phosphate buffered saline. Each test animal receives a subcutaneous (s.c.) injection of 5×10^6 tumor cells into the right flank and tumor growth is monitored as the average tumor size approaches the target range of 80-300 mm^3. […] Tumors and body weights are measured regularly until the study is terminated.
Tumors are measured in two dimensions using calipers, and volume is calculated using the formula: […]
Treatment efficacy is determined using data from Day 15. The MTV (n), the median tumor volume for the number of animals, n, on Day 15, is determined for each group. Percent tumor growth inhibition (% TGI) is defined as the difference between the MTV of the designated control group (vehicle administration) and the MTV of the drug-treated group, expressed as a percentage of the MTV of the control group: % TGI=[1−(MTVdrug treated/MTVcontrol)]×100 The data set for TGI analysis includes all animals in a group, except those that die due to treatment-related (TR) or non-treatment-related (NTR) causes. […]
Animals are monitored individually for tumor growth until Day 71. […]

T1 sequence (P17844 whole entry): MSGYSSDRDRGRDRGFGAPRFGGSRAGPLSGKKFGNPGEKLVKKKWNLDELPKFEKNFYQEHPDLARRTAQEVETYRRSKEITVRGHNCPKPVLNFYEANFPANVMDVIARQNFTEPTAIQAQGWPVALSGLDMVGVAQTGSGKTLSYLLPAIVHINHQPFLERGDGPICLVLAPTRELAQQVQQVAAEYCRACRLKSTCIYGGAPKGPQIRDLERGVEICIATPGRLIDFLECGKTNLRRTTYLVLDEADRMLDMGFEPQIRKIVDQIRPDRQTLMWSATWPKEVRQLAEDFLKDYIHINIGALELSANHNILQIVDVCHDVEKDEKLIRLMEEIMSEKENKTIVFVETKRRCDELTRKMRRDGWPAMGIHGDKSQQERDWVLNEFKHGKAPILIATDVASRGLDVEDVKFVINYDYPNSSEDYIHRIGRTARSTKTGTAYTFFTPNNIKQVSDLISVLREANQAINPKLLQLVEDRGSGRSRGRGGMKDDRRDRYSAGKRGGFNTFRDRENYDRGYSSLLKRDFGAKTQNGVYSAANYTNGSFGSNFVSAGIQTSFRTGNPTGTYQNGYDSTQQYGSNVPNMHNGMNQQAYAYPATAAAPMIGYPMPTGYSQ

In the case of `COc1cc(OC)cc(N2CCN(C(=O)Nc3nc4cc(F)ccc4nc3OC)CC2)c1` [RX-5902, 4-(3,5-dimethoxyphenyl)-N-(7-fluoro-3-methoxyquinoxalin-2-yl)piperazine-1-carboxamide], the “β-catenin dependent ATPase activity” value ([1]; 0.2 μM) is reported as “largely diminished”, the IC50 ([1]; read-out: IC50 for the inhibition of β-catenin dependent ATPase activity) is reported as 61 nM and the TGI % ([2]; 160 mg/kg QWK) is reported as 30%*. The TGI % ([2]; 320 mg/kg QWK) was 26%* and the TGI % ([2]; 600 mg/kg QWK) was 26%*.
